Test results reported in patent EP2490029A1, “Vancomycin analysis” (Université Catholique de Louvain, priority 2011, dated 2012).

Tests used:
Nα(Ac)-L-Lys-D-Ala-D-Ala = test: FTIR-ATR biosensor binding of vancomycin to immobilized peptide receptor; conditions: for vancomycin binding: 50 µg/mL; for Kd: single site binding isotherm, R^2 = 0.99, ± standard error
Experimental: On the thus functionalized ATR element a peptide was bound. Peptide binding onto the device was obtained in one channel of measurement at a time by incubation for 3 hours of N-α-acetyl-Lys-D-Ala-D-Ala peptide, or another peptide as provided in Figure 2, at a concentration of 2 mg/mL in phosphate buffered saline (PBS) at room temperature. The measurement channel was then rinsed with milliQ water for 30 min.
The binding of the peptide was monitored by FTIR-ATR spectroscopy by using the BIA-ATR device. Attenuated Total Reflection Fourier Transformed Infrared (ATR-FTIR) Spectra were obtained on a Brüker IFS55 FTIR spectrophotometer (Ettlingen, Germany) equipped with a MCT detector (broad band 12000-420 cm^-1, liquid N2 cooled, 24h hold time) at a resolution of 8 cm^-1 with an aperture of 3.5 mm and acquired in the double-sided, forward-backward mode. Two levels of zero filling of the interferogram prior to Fourier transform allowed encoding the data every 1 cm^-1. The spectrometer was continuously purged with dry air (Whatman 75-62, Haverhill, MA, USA). Triangular-shaped germanium crystals (4.8 x 4.8 x 45 mm^3) were purchased from Biosentech (Belgium) and accommodated on the beam condenser from a Golden Gate Micro-ATR from Specac. A top plate with a groove fitting the crystal was used in replacement of the diamond-bearing plate (WOW Company, Belgium). With this geometry, a single reflection was obtained and more than 10 lanes can be used on a crystal.
Using a biosensor constructed in Example 1, a solution of vancomycin in pure water (obtained from the laboratory MilliQ system) at a concentration of at 50 µg/mL is passed over one channel of the crystal at a flow-rate of 20 µl/min. FTIR-ATR spectra were recorded continuously and the vancomycin binding is monitored by following the appearance of its characteristic signal at 1230 cm^-1. This monitoring of this signal is advantageous as it is isolated in the spectra, i.e. not superimposed to other signals due to ligand and/or receptor. The intensity of the peak at 1230 cm^-1 thus allowed the quantitative measurement of vancomycin binding.
The N-α(Ac)-L-Lys-D-Ala-D-Ala biosensor as described in Example 1 was used. A solution of vancomycin in phosphate buffered saline (50 µg/mL) was used in the binding assay. The quantitative analysis was performed by measuring the surface on the IR spectra comprised between 1253 and 1218 cm^-1. The spectra were recorded every 30 sec during 5 min. […] The results are depicted in Figure 1.
The unexpected effect on the binding affinity of vancomycin versus X-D-Ala-D-Ala receptor immobilized on the ATR optical element, has been further observed by using the following detection media: 3 mM aqueous solution of Na2HPO4, 10 mM aqueous solution of Na2HPO4, 154 mM aqueous solution of NaCl, and a PBS solution made from 3 mM Na2HPO4 and 50 mM NaCl.
The Nα(Ac)-L-Lys-D-Ala-D-Ala biosensor described in Example 1 was used. The assays were performed three times successively using the same channel, and this has been repeated at three different days (n = 9) using another channel for each day. Solutions of vancomycin in 5% glucose at various concentrations (from 0 to 25 µg/mL) were passed over the crystal at a flow rate of 20 µL/min. The vancomycin binding was analyzed by the integration of the peak at 1230 cm^-1 (10 spectra recorded every 30 sec), and normalized by referring to the 25 µg/mL concentration.
The spiked dialyzed serum samples were flown over a measurement channel on which the Nα(Ac)-L-Lys-D-Ala-D-Ala had been attached as described before in Example 1. The absorption band between 1259 and 1213 cm^-1 was quantified for each vancomycin concentration. The area of the band was reported as a function of vancomycin concentration. […] From the data reported in Figure 4 it follows that vancomycin binding can be monitored with precision in a concentration range which is relevant for medical application.

[1] = system: N-α-acetyl-Lys-D-ala-D-ala; test: Quartz crystal microbalance (QCM) detection of vancomycin on grafted peptide receptor; format: binding; conditions: water/glucose solution compared with water; 1 µM and 40 µM; flow rate 40 µL/min
Experimental: Quartz crystal microbalance experiments were performed using SRS Stanford Research Systems (QCM 200 5MHz). The surfaces of gold-plated quartz crystal on chips were prepared as follows: gold-plated quartz crystals were initially immersed in a piranha solution (70/30) for 3 minutes to regenerate the surfaces. The resulting crystals were repeatedly and intensively rinsed with water. The crystals were subsequently grafted with mPEG thiols (O-(2-Mercaptoethyl)-O'-methyl-hexa(ethylene glycol) (polypure) 10^-3 M in ethanol. The grafted crystals were subsequently rinsed with ethanol in an ultrasonic bath, and dried with N2. The grafted crystals were subsequently grafted with NHS ester succinimidyl, 2 mM in acetonitrile sprayed on the surfaces and the surfaces were placed in front of a UV lamp during 2 hours. The functionalized surfaces of the crystals were subsequently rinsed with acetonitrile in an ultrasonic bath; dried with N2, and then subsequently grafted with N-α-acetyl-Lys-D-ala-D-ala in pure water and in water with 5% of glucose (vol.).
All QCM experiments used a flow rate of 40 µL/min. The quality of all the grafting has been tested at each step, by contact angle measurements and IR spectra. All of them were satisfactory. Figures 6, 7 and 8 represent QCM data plot showing delta frequency (MHz) change over time of vancomycin detection. […]

For CN[C@H](CC(C)C)C(=O)N[C@H]1C(=O)N[C@@H](CC(N)=O)C(=O)N[C@H]2C(=O)N[C@H]3C(=O)N[C@H](C(=O)N[C@H](C(=O)O)c4cc(O)cc(O)c4-c4cc3ccc4O)[C@H](O)c3ccc(c(Cl)c3)Oc3cc2cc(c3O[C@@H]2O[C@H](CO)[C@@H](O)[C@H](O)[C@H]2O[C@H]2C[C@](C)(N)[C@H](O)[C@H](C)O2)Oc2ccc(cc2Cl)[C@H]1O [vancomycin], the “amount of vancomycin detected” value (Nα(Ac)-L-Lys-D-Ala-D-Ala; 50 µg/mL in phosphate buffered saline, compared to pure water, IR area 1253-1218 cm^-1) was “very weak”, the vancomycin binding (Nα(Ac)-L-Lys-D-Ala-D-Ala; effect of phosphate (3 mM or 10 mM Na2HPO4, PBS) in detection medium) was “totally prevents” and the vancomycin binding (Nα(Ac)-L-Lys-D-Ala-D-Ala; effect of sodium chloride at physiological concentration (154 mM NaCl)) was “partially inhibited”. For the same compound, the Kd (Nα(Ac)-L-Lys-D-Ala-D-Ala; in 5% glucose, band area 1259-1213 cm^-1) was 13.7 ± 1.8 µM, the Kd (Nα(Ac)-L-Lys-D-Ala-D-Ala; in human serum dialyzed against 5% glucose) was 7.3 ± 0.8 µM and the “vancomycin binding onto the receptor” value (Nα(Ac)-L-Lys-D-Ala-D-Ala; in pure water) was “maximal”. The delta frequency shift [1] was “greater delta frequency was always observed in the presence of glucose”.
